Assay in all cases: relative viability (nuclei count vs DMSO), 5 days (fraction); higher = more cells survive
Compound in the assay “Dasatinib + Lapatinib”: Cc1nc(Nc2ncc(C(=O)Nc3c(C)cccc3Cl)s2)cc(N2CCN(CCO)CC2)n1 [Dasatinib] + CS(=O)(=O)CCNCc1ccc(-c2ccc3ncnc(Nc4ccc(OCc5cccc(F)c5)c(Cl)c4)c3c2)o1 [Lapatinib] (partner 2 µM)
The gist of the method: (§1)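 Lung cancer cell lines in 1536-well plates were dosed by pin tool the day after seeding, either with one drug alone or with a fixed anchor-drug dose plus five library-drug doses (not always all listed) in √10 steps. After 5 days, cells were fixed and their nuclei stained in one step (final 0.05% Triton X-100, 1% formaldehyde, 1 ug/ml Hoechst), then counted on 4× images. Relative viability is the nuclei count in treated wells divided by that in vehicle wells. Values are medians of duplicate plates.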

Compound in the assay “Dasatinib + Foretinib”: Cc1nc(Nc2ncc(C(=O)Nc3c(C)cccc3Cl)s2)cc(N2CCN(CCO)CC2)n1 [Dasatinib] + COc1cc2c(Oc3ccc(NC(=O)C4(C(=O)Nc5ccc(F)cc5)CC4)cc3F)ccnc2cc1OCCCN1CCOCC1 [Foretinib] (partner 0.25 µM)
In short, it runs like this:
as §1

Compound in the assay “ALW-II-49-7 + Tozasertib”: Cc1ccc(C(=O)Nc2cccc(C(F)(F)F)c2)cc1Nc1cncc(C(N)=O)c1 [ALW-II-49-7] + Cc1cc(Nc2cc(N3CCN(C)CC3)nc(Sc3ccc(NC(=O)C4CC4)cc3)n2)n[nH]1 [Tozasertib] (partner 0.1 µM)
In short, it runs like this: as §1

Compound in the assay “Dasatinib + Vorinostat”: Cc1nc(Nc2ncc(C(=O)Nc3c(C)cccc3Cl)s2)cc(N2CCN(CCO)CC2)n1 [Dasatinib] + O=C(CCCCCCC(=O)Nc1ccccc1)NO [Vorinostat] (partner 1 µM)
The gist of the method: as §1

Regarding NCI-H2023, the relative viability with Dasatinib + Lapatinib (first compound 0.005 µM) is 0.584; in the assay with Dasatinib + Lapatinib (first compound 0.01581 µM), 0.703; with Dasatinib + Lapatinib (first compound 0.05 µM) it was 0.742; in the assay with Dasatinib + Lapatinib (first compound 0.1581 µM) it was 0.758; with Dasatinib + Lapatinib (first compound 0.5 µM), 0.64; with Dasatinib + Foretinib (first compound 0.005 µM), 0.642. In addition, the relative viability in the assay with Dasatinib + Foretinib (first compound 0.01581 µM) was found to be 0.749; in the assay with Dasatinib + Foretinib (first compound 0.05 µM) it was 0.434; with Dasatinib + Foretinib (first compound 0.1581 µM), 0.377; with Dasatinib + Foretinib (first compound 0.5 µM), 0.297; in the assay with ALW-II-49-7 + Tozasertib (first compound 0.08 µM), 0.257; with ALW-II-49-7 + Tozasertib (first compound 0.253 µM), 0.464. Further, the relative viability came out at 0.276 with ALW-II-49-7 + Tozasertib (first compound 0.8 µM); 0.259 with ALW-II-49-7 + Tozasertib (first compound 2.53 µM); 0.189 with ALW-II-49-7 + Tozasertib (first compound 8 µM); 0.681 with Dasatinib + Vorinostat (first compound 0.005 µM); 0.688 with Dasatinib + Vorinostat (first compound 0.01581 µM); 0.568 with Dasatinib + Vorinostat (first compound 0.05 µM). For the same cell line, the relative viability with Dasatinib + Vorinostat (first compound 0.1581 µM) came out at 0.561; in the assay with Dasatinib + Vorinostat (first compound 0.5 µM), 0.429.
As to NCI-H2085, the relative viability came to 0.666 in the assay with Dasatinib + Lapatinib (first compound 0.005 µM); 0.624 with Dasatinib + Lapatinib (first compound 0.01581 µM); 0.417 with Dasatinib + Lapatinib (first compound 0.05 µM); 0.199 with Dasatinib + Lapatinib (first compound 0.1581 µM); 0.182 with Dasatinib + Lapatinib (first compound 0.5 µM); 0.855 in the assay with Dasatinib + Foretinib (first compound 0.005 µM). For the same cell line, the relative viability with Dasatinib + Foretinib (first compound 0.01581 µM) was determined as 0.783; in the assay with Dasatinib + Foretinib (first compound 0.05 µM) it was 0.338; in the assay with Dasatinib + Foretinib (first compound 0.1581 µM), 0.198; in the assay with Dasatinib + Foretinib (first compound 0.5 µM), 0.173; in the assay with ALW-II-49-7 + Tozasertib (first compound 0.08 µM), 0.753; with ALW-II-49-7 + Tozasertib (first compound 0.253 µM), 0.895. Moreover, the relative viability with ALW-II-49-7 + Tozasertib (first compound 0.8 µM) came out at 0.787; with ALW-II-49-7 + Tozasertib (first compound 2.53 µM), 0.743; in the assay with ALW-II-49-7 + Tozasertib (first compound 8 µM) it was 0.568; with Dasatinib + Vorinostat (first compound 0.005 µM), 0.831; with Dasatinib + Vorinostat (first compound 0.01581 µM), 0.632; in the assay with Dasatinib + Vorinostat (first compound 0.05 µM), 0.567. Also, the relative viability was found to be 0.259 in the assay with Dasatinib + Vorinostat (first compound 0.1581 µM) and 0.202 in the assay with Dasatinib + Vorinostat (first compound 0.5 µM).
Take NCI-H2087: the relative viability was determined as 1.03 with Dasatinib + Lapatinib (first compound 0.005 µM); 0.839 with Dasatinib + Lapatinib (first compound 0.01581 µM); 0.95 in the assay with Dasatinib + Lapatinib (first compound 0.05 µM); 1.09 with Dasatinib + Lapatinib (first compound 0.1581 µM); 0.605 with Dasatinib + Lapatinib (first compound 0.5 µM); 1.2 with Dasatinib + Foretinib (first compound 0.005 µM). In addition, the relative viability stood at 1.16 in the assay with Dasatinib + Foretinib (first compound 0.01581 µM); 1.31 with Dasatinib + Foretinib (first compound 0.05 µM); 0.756 with Dasatinib + Foretinib (first compound 0.1581 µM); 0.464 with Dasatinib + Foretinib (first compound 0.5 µM); 0.222 with ALW-II-49-7 + Tozasertib (first compound 0.08 µM); 0.266 in the assay with ALW-II-49-7 + Tozasertib (first compound 0.253 µM). The relative viability came to 0.271 with ALW-II-49-7 + Tozasertib (first compound 0.8 µM); 0.162 in the assay with ALW-II-49-7 + Tozasertib (first compound 2.53 µM); 0.16 with ALW-II-49-7 + Tozasertib (first compound 8 µM); 0.954 with Dasatinib + Vorinostat (first compound 0.005 µM); 0.494 in the assay with Dasatinib + Vorinostat (first compound 0.01581 µM); 0.778 with Dasatinib + Vorinostat (first compound 0.05 µM). Moreover, the relative viability with Dasatinib + Vorinostat (first compound 0.1581 µM) turned out to be 0.714; in the assay with Dasatinib + Vorinostat (first compound 0.5 µM) it was 0.156.
For NCI-H2126, the relative viability with Dasatinib + Lapatinib (first compound 0.005 µM) was determined as 0.748; with Dasatinib + Lapatinib (first compound 0.01581 µM), 0.584; in the assay with Dasatinib + Lapatinib (first compound 0.05 µM), 0.669; with Dasatinib + Lapatinib (first compound 0.1581 µM), 0.525; with Dasatinib + Lapatinib (first compound 0.5 µM), 0.328; in the assay with Dasatinib + Foretinib (first compound 0.005 µM), 1.18. Moreover, the relative viability stood at 0.799 with Dasatinib + Foretinib (first compound 0.01581 µM); 1.2 in the assay with Dasatinib + Foretinib (first compound 0.05 µM); 0.852 in the assay with Dasatinib + Foretinib (first compound 0.1581 µM); 0.425 with Dasatinib + Foretinib (first compound 0.5 µM); 0.856 with ALW-II-49-7 + Tozasertib (first compound 0.08 µM); 0.885 with ALW-II-49-7 + Tozasertib (first compound 0.253 µM). Besides, the relative viability is 0.826 with ALW-II-49-7 + Tozasertib (first compound 0.8 µM); 0.197 with ALW-II-49-7 + Tozasertib (first compound 2.53 µM); 0.786 with ALW-II-49-7 + Tozasertib (first compound 8 µM); 0.796 with Dasatinib + Vorinostat (first compound 0.005 µM); 0.597 with Dasatinib + Vorinostat (first compound 0.01581 µM); 0.755 with Dasatinib + Vorinostat (first compound 0.05 µM). Also, the relative viability was 0.521 with Dasatinib + Vorinostat (first compound 0.1581 µM) and 0.312 in the assay with Dasatinib + Vorinostat (first compound 0.5 µM).
In the case of NCI-H2170, the relative viability was determined as 0.264 in the assay with Dasatinib + Lapatinib (first compound 0.005 µM); 0.236 with Dasatinib + Lapatinib (first compound 0.01581 µM); 0.271 with Dasatinib + Lapatinib (first compound 0.05 µM); 0.259 in the assay with Dasatinib + Lapatinib (first compound 0.1581 µM); 0.216 with Dasatinib + Lapatinib (first compound 0.5 µM); 0.958 with Dasatinib + Foretinib (first compound 0.005 µM). In addition, the relative viability stood at 0.927 with Dasatinib + Foretinib (first compound 0.01581 µM); 0.708 in the assay with Dasatinib + Foretinib (first compound 0.05 µM); 0.678 in the assay with Dasatinib + Foretinib (first compound 0.1581 µM); 0.491 in the assay with Dasatinib + Foretinib (first compound 0.5 µM); 0.724 in the assay with ALW-II-49-7 + Tozasertib (first compound 0.08 µM); 0.817 with ALW-II-49-7 + Tozasertib (first compound 0.253 µM). In addition, the relative viability was found to be 0.73 with ALW-II-49-7 + Tozasertib (first compound 0.8 µM); 0.618 in the assay with ALW-II-49-7 + Tozasertib (first compound 2.53 µM); 0.767 with ALW-II-49-7 + Tozasertib (first compound 8 µM); 0.797 with Dasatinib + Vorinostat (first compound 0.005 µM); 0.72 with Dasatinib + Vorinostat (first compound 0.01581 µM); 0.743 with Dasatinib + Vorinostat (first compound 0.05 µM). Besides, the relative viability with Dasatinib + Vorinostat (first compound 0.1581 µM) is 0.467; in the assay with Dasatinib + Vorinostat (first compound 0.5 µM), 0.334.
With NCI-H2228, the relative viability in the assay with Dasatinib + Lapatinib (first compound 0.005 µM) was found to be 0.829; in the assay with Dasatinib + Lapatinib (first compound 0.01581 µM), 1.06; with Dasatinib + Lapatinib (first compound 0.05 µM), 0.705; in the assay with Dasatinib + Lapatinib (first compound 0.1581 µM), 0.731; with Dasatinib + Lapatinib (first compound 0.5 µM) it was 0.551; with Dasatinib + Foretinib (first compound 0.005 µM) it was 0.853. Further, the relative viability turned out to be 0.614 with Dasatinib + Foretinib (first compound 0.01581 µM); 0.766 with Dasatinib + Foretinib (first compound 0.05 µM); 0.51 in the assay with Dasatinib + Foretinib (first compound 0.1581 µM); 0.407 with Dasatinib + Foretinib (first compound 0.5 µM); 0.261 with ALW-II-49-7 + Tozasertib (first compound 0.08 µM); 0.263 in the assay with ALW-II-49-7 + Tozasertib (first compound 0.253 µM). The relative viability with ALW-II-49-7 + Tozasertib (first compound 0.8 µM) is 0.277; with ALW-II-49-7 + Tozasertib (first compound 2.53 µM), 0.171; with ALW-II-49-7 + Tozasertib (first compound 8 µM) it was 0.22; in the assay with Dasatinib + Vorinostat (first compound 0.005 µM), 0.618; with Dasatinib + Vorinostat (first compound 0.01581 µM) it was 0.564; with Dasatinib + Vorinostat (first compound 0.05 µM), 0.333. The relative viability worked out at 0.387 in the assay with Dasatinib + Vorinostat (first compound 0.1581 µM) and 0.388 in the assay with Dasatinib + Vorinostat (first compound 0.5 µM).
Regarding NCI-H2347, the relative viability with Dasatinib + Lapatinib (first compound 0.005 µM) was determined as 0.872; with Dasatinib + Lapatinib (first compound 0.01581 µM), 0.951; in the assay with Dasatinib + Lapatinib (first compound 0.05 µM), 1.04; in the assay with Dasatinib + Lapatinib (first compound 0.1581 µM) it was 0.691; with Dasatinib + Lapatinib (first compound 0.5 µM), 0.386; with Dasatinib + Foretinib (first compound 0.005 µM), 0.625. In addition, the relative viability with Dasatinib + Foretinib (first compound 0.01581 µM) was found to be 0.504; in the assay with Dasatinib + Foretinib (first compound 0.05 µM), 0.436; in the assay with Dasatinib + Foretinib (first compound 0.1581 µM), 0.378; with Dasatinib + Foretinib (first compound 0.5 µM), 0.495; with ALW-II-49-7 + Tozasertib (first compound 0.08 µM), 0.422; with ALW-II-49-7 + Tozasertib (first compound 0.253 µM), 0.543. Moreover, the relative viability with ALW-II-49-7 + Tozasertib (first compound 0.8 µM) was 0.463; in the assay with ALW-II-49-7 + Tozasertib (first compound 2.53 µM), 0.563; with ALW-II-49-7 + Tozasertib (first compound 8 µM), 0.57; in the assay with Dasatinib + Vorinostat (first compound 0.005 µM), 0.422; in the assay with Dasatinib + Vorinostat (first compound 0.01581 µM) it was 0.298; with Dasatinib + Vorinostat (first compound 0.05 µM) it was 0.363. For the same cell line, the relative viability with Dasatinib + Vorinostat (first compound 0.1581 µM) was determined as 0.263; in the assay with Dasatinib + Vorinostat (first compound 0.5 µM), 0.238.

These data come from the supplement of paper PMC10307832.
